{
  "source": "patent US11643478B2",
  "about": "“Low-molecular-weight holothurian glycosaminoglycan and use thereof” (Suzhou Yi-hua Biomedical Technology co., Ltd, priority 2019, dated 2023)",
  "key": {"[1]": {"system": "rat's learning and memory abilities of scopolamine model", "test": "Platform jumping test, rat dysmnesia model induced by scopolamine", "type": "in vivo, SD rats", "settings": "intragastric for 2 weeks, LHG 30 mg/Kg, Donepezil 1 mg/Kg, scopolamine 5 mg/Kg i.p.", "procedure": "Grouping and dose: blank control group, scopolamine model group (SCOP), positive control group:(Donepezil, 1 mg/Kg), LHG drug group (30 mg/Kg). Administration: intragastric administration. […] Morris training on Day 9 (2 times per day). Morris water maze test and platform jumping test on Day 14. Platform jumping test: Learning and training on the first day, the repeated tests were conducted on the second day. Rats of scopolamine model group, positive control group and LHG drug group were injected with scopolamine hydrobromide through peritoneal cavity (5 mg/Kg) at 20 minutes before the test, while rats of blank control group were injected with equal volume of normal saline through peritoneal cavity. The incubation time of jumping off the platform for the first time (SDL) and the incubation time of avoiding electric shock (EL) were recorded."}, "[2]": {"system": "rat's learning and memory abilities of scopolamine model", "test": "Morris water maze test, rat dysmnesia model induced by scopolamine", "type": "in vivo, SD rats", "settings": "intragastric for 2 weeks, LHG 30 mg/Kg, Donepezil 1 mg/Kg; scopolamine i.p.", "procedure": "Grouping and dose: blank control group, scopolamine model group (SCOP), positive control group:(Donepezil, 1 mg/Kg), LHG drug group (30 mg/Kg). Administration: intragastric administration. […] Morris training on Day 9 (2 times per day). Morris water maze test and platform jumping test on Day 14. Modeling method and test of learning and memory: on the day of the test, rats of scopolamine model group, positive control group and LHG drug group were injected with scopolamine hydrobromide through peritoneal cavity (firstly injection dose is 2 mg/Kg for 2 days, then injection dose is 2 mg/Kg on Day 3) at 30 minutes after intragastric administration, while rats of blank control group were injected with equal volume of normal saline through peritoneal cavity. Morris water maze test was conducted at 20 minutes after injection. The route, time and speed of the rats in the 90s were recorded automatically with computer by the camera tracking on the swimming performance of the rats, then the escaping-incubation time of seeking the platform and swimming distance were calculated."}, "[3]": {"system": "xylene inducing murine auricle swelling", "test": "Xylene inducing murine auricle swelling (anti-inflammation effect)", "type": "in vivo", "settings": "mice, subcutaneous injection 0.01 mL/1 g for 5 days (LHG 100 mg/mL, dexamethasone 50 mg/mL), 1 h after xylene", "procedure": "Drug preparation: LHG was added in ionized water to obtain 100 mg/mL LHG solution. Positive contrast: dexamethasone was added in ionized water to obtain 50 mg/mL dexamethasone solution. Blank contrast: ionized water.\nAdministration: sub cutaneous injection.\nExperimental process: healthy mice are randomly divided into three groups (six in each group, half male and half female), name as LHG drug group, positive control group and blank control group. Three groups' mice were injected with 0.01 mL/1 g of LHG, dexamethasone and ionized water respectively. Drug was administered continuously for 5 days. 30 μL of xylenes was evenly smeared on both sides of the right ear of the mice to induce inflammation at 30 min after the last administration. The left ear was used as the reference. At 1 h after inducing inflammation, mice were executed by removing cervical vertebra. The ear pieces of the same part in the left and right ears were obtained with a hole punter, then the auricle swelling rate and inhibition rate of auricle swelling were calculated by weighing with an analytical balance."}},
  "data": [
    {"smiles": "COc1cc2c(cc1OC)C(=O)C(CC1CCN(Cc3ccccc3)CC1)C2", "note": "(stereo not drawn) [Donepezil]", "values": [
      {"measurement": "Incubation time of avoiding electric shock", "setting": "[1]; EL", "value": "115.28 ± 17.54", "unit": "s"},
      {"measurement": "Incubation time of jumping off the platform for the first time", "setting": "[1]; SDL", "value": "48.75 ± 9.84", "unit": "s"},
      {"measurement": "Escaping-incubation time", "setting": "[2]", "value": "37.20 ± 12.72", "unit": "s"},
      {"measurement": "Swimming distance (cm)", "setting": "[2]", "value": "1652.25 ± 295.02", "unit": "cm"}
    ]},
    {"smiles": "C[C@@H]1C[C@H]2[C@@H]3CCC4=CC(=O)C=C[C@]4(C)[C@@]3(F)[C@@H](O)C[C@]2(C)[C@@]1(O)C(=O)CO", "note": "[dexamethasone]", "values": [
      {"measurement": "Auricle swelling rate", "setting": "[3]", "value": "102.9% ± 11.3%"},
      {"measurement": "Inhibition rate of auricle swelling", "setting": "[3]", "value": 24.6, "unit": "%"}
    ]}
  ]
}
